Measured values: patent publication US9393232B2 (BeiGene, Ltd., priority 2013, dated 2016)
Like-named read-outs stand apart in the source and are kept apart here.

Experiments:
[1] = biological target: Recombinant human BRD4(1-477) (Homo sapiens (Human), UniProt O60885); experiment: BRD4 TR-FRET biochemical IC50 assay; format: binding; settings: TR-FRET, tetra-acetylated histone peptide; read-out: BRD4 IC50
[2] = system: MV4-11; experiment: MV4-11 (3 Days) EC50; format: cell-based

Row | SMILES | IC50 [1] | EC50 ([2]; Homo sapiens, MV4-11, 72 h) | EC50 [2]
1 | Cc1noc(C)c1-c1ccc2c(c1)C(c1ccccc1)(N1CCC(O)CC1)C(=O)N2 (centres unmarked) [Compound 2.4, 5-(3,5-dimethylisoxazol-4-yl)-3-(4-hydroxypiperidin-1-yl)-3-phenylindolin-2-one] | 36 nM | 76 nM | 
2 | Cc1noc(C)c1-c1ccc2c(c1)C(c1ccccc1)(N1CCN(C)CC1)C(=O)N2 (centres unmarked) [Compound 2.5, 5-(3,5-dimethylisoxazol-4-yl)-3-(4-methylpiperazin-1-yl)-3-phenylindolin-2-one] | 110 nM | 420 nM | 
3 | Cc1noc(C)c1-c1ccc2c(c1)C(c1ccccc1)(N1CCOCC1)C(=O)N2 (centres unmarked) [Compound 2.6, 5-(3,5-dimethylisoxazol-4-yl)-3-morpholino-3-phenylindolin-2-one] | 63 nM | 179 nM | 
4 | Cc1noc(C)c1-c1ccc2c(c1)C(NCCO)(C1CCCCC1)C(=O)N2 (centres unmarked) [Compound 2.18, 3-cyclohexyl-5-(3,5-dimethylisoxazol-4-yl)-3-(2-hydroxyethylamino)indolin-2-one] | 85 nM | 204 nM | 
5 | Cc1noc(C)c1-c1ccc2c(c1)C(NC[C@H](C)O)(C1CCCCC1)C(=O)N2 (stereo partly drawn) [Compound 2.21, 3-cyclohexyl-5-(3,5-dimethylisoxazol-4-yl)-3-((S)-2-hydroxypropylamino)indolin-2-one] | 88 nM |  | 270 nM
6 | Cc1noc(C)c1-c1ccc2c(c1)C(N[C@@H](C)CO)(C1CCCCC1)C(=O)N2 (stereo partly drawn) [Compound 2.23, 3-cyclohexyl-5-(3,5-dimethylisoxazol-4-yl)-3-((S)-1-hydroxypropan-2-ylamino)indolin-2-one] | 160 nM | 371 nM | 
7 | Cc1noc(C)c1-c1ccc2c(c1)C(N[C@H](C)CO)(C1CCCCC1)C(=O)N2 (stereo partly drawn) [Compound 2.24, 3-cyclohexyl-5-(3,5-dimethylisoxazol-4-yl)-3-((R)-1-hydroxypropan-2-ylamino)indolin-2-one] | 75 nM | 349 nM | 
8 | Cc1noc(C)c1-c1ccc2c(c1)C(NC(C)C)(C1CCCCC1)C(=O)N2 (centres unmarked) [Compound 2.27, 3-cyclohexyl-5-(3,5-dimethylisoxazol-4-yl)-3-(isopropylamino)indolin-2-one] | 85 nM | 833 nM | 
9 | Cc1noc(C)c1-c1ccc2c(c1)C(NCCN(C)C)(C1CCCCC1)C(=O)N2 (centres unmarked) [Compound 2.28, 3-cyclohexyl-3-(2-(dimethylamino)ethylamino)-5-(3,5-dimethylisoxazol-4-yl)indolin-2-one] | 140 nM | 539 nM | 
10 | Cc1noc(C)c1-c1ccc2c(c1)C(C1CCCCC1)(N1CCOCC1)C(=O)N2 (centres unmarked) [Compound 2.29] | 94 nM | 314 nM | 
11 | Cc1noc(C)c1-c1ccc2c(c1)C(C1CCCC1)(N1CCOCC1)C(=O)N2 (centres unmarked) [Compound 2.34, 3-cyclopentyl-5-(3,5-dimethylisoxazol-4-yl)-3-morpholinoindolin-2-one] | 120 nM | 438 nM | 
12 | Cc1noc(C)c1-c1ccc2c(c1)C(NCCO)(C1CCCC1)C(=O)N2 (centres unmarked) [Compound 2.35, 3-cyclopentyl-5-(3,5-dimethylisoxazol-4-yl)-3-(2-hydroxyethylamino)indolin-2-one] | 130 nM | 324 nM | 
13 | Cc1noc(C)c1-c1ccc2c(c1)C(c1ccccc1)(N1CCNCC1)C(=O)N2 (centres unmarked) [Compound 2.38, 5-(3,5-dimethylisoxazol-4-yl)-3-phenyl-3-(piperazin-1-yl)indolin-2-one] | 120 nM | 504 nM | 
14 | Cc1noc(C)c1-c1ccc2c(c1)C(C1CCCCC1)(N1CCNCC1)C(=O)N2 (centres unmarked) [Compound 2.39] | 76 nM | 365 nM | 
15 | Cc1noc(C)c1-c1ccc2c(c1)C(C1CCCC1)(N1CCNCC1)C(=O)N2 (centres unmarked) [Compound 2.40, 3-Cyclopentyl-5-(3,5-dimethylisoxazol-4-yl)-3-(piperazin-1-yl)indolin-2-one] | 150 nM | 555 nM | 
16 | Cc1noc(C)c1-c1ccc2c(c1)C(c1ccccc1)(N1CC(O)C1)C(=O)N2 (centres unmarked) [Compound 2.58, 5-(3,5-Dimethylisoxazol-4-yl)-3-(3-hydroxyazetidin-1-yl)-3-phenylindolin-2-one] | 78 nM | 258 nM | 
